Holding throughout (assay): biochemical
Common to all, as to set-up: Thermal shift (DSF, SYPRO Orange) Tm shift of recombinant kinase domains at 10 uM compound

One test concerns the target T1, NEK2 (Homo sapiens, UniProt P51955).
T1 sequence (P51955 1-445): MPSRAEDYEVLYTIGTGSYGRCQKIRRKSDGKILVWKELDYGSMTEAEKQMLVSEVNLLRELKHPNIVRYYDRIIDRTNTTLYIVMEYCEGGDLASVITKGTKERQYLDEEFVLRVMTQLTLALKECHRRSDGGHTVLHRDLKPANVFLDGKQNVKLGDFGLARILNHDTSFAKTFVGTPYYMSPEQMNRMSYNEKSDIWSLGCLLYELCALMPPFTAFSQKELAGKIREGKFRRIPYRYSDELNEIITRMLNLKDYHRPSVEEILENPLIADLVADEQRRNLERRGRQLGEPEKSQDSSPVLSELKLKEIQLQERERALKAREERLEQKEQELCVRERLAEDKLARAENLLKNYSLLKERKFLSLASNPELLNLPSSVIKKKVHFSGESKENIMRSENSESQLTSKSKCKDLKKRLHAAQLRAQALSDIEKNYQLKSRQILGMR

The target in a further test is T2, BIKE (Homo sapiens, UniProt Q9NSY1).
T2 construct: gene BMP2K

In a further test the target is FGFR1 (Homo sapiens, UniProt P11362).
In the next test the target is T3, GPRK5 (Homo sapiens, UniProt P34947).
T3 construct: gene GRK5

The next test deals with T4, JNK1 (Homo sapiens, UniProt P45983).
T4 construct: gene MAPK8

The target in a further test is T5, BMPR2 (Homo sapiens, UniProt Q13873).
T5 sequence (Q13873 1-1038): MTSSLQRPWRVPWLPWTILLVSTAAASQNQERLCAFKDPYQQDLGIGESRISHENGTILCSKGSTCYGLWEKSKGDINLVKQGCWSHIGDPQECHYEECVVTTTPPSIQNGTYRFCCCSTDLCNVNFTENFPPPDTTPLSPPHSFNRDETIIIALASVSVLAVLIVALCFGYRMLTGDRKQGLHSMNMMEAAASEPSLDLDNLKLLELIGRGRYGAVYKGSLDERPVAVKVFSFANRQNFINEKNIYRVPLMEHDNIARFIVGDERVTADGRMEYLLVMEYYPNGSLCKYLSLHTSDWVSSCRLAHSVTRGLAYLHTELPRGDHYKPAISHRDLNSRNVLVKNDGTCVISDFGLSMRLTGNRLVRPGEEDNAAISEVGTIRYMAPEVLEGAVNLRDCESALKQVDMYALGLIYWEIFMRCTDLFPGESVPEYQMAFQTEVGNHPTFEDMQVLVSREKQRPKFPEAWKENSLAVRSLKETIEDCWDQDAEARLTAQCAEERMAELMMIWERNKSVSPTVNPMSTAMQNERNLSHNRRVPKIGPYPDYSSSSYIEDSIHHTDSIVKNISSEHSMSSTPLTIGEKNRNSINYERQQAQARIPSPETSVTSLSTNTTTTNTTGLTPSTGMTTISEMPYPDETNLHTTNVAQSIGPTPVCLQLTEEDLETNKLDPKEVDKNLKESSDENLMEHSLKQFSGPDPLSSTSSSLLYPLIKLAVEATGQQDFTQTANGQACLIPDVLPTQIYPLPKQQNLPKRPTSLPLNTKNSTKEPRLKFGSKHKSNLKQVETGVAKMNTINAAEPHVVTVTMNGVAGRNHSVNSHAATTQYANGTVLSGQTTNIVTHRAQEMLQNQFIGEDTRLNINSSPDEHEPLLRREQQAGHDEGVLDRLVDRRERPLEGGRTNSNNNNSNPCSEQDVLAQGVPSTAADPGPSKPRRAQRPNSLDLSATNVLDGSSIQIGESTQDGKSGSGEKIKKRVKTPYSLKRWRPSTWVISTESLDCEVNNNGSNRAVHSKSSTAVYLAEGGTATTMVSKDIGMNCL

Another test deals with T6, p38a (Homo sapiens, UniProt Q16539).
T6 construct: gene MAPK14

The target of a further test is T7, MST1 (Homo sapiens, UniProt Q13043).
T7 construct: gene STK4
T7 sequence (Q13043 1-487): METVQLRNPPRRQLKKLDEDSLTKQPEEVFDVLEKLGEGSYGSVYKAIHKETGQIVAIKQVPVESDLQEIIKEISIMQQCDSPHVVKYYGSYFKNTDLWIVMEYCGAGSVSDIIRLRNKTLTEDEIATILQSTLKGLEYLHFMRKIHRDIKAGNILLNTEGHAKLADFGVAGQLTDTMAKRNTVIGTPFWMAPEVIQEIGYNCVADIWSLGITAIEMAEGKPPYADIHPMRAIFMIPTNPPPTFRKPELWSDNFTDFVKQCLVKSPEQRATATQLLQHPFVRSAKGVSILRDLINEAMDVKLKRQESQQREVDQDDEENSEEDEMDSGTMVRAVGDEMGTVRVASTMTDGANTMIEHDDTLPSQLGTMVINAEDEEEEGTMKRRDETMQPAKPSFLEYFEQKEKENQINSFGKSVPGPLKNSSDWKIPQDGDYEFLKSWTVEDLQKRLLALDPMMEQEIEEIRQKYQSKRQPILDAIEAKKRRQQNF

Like-named read-outs stand apart in the source and are kept apart here.

ΔTm data for 3 compounds are collected here from doi:10.1101/2023.12.04.569845, “Identification of 4-(6-((2-methoxyphenyl)amino)pyrazin-2-yl)benzoic acids as CSNK2A inhibitors with antiviral activity and improved selectivity over PIM3” (bioRxiv, 2023).

T6 sequence (Q16539 whole entry): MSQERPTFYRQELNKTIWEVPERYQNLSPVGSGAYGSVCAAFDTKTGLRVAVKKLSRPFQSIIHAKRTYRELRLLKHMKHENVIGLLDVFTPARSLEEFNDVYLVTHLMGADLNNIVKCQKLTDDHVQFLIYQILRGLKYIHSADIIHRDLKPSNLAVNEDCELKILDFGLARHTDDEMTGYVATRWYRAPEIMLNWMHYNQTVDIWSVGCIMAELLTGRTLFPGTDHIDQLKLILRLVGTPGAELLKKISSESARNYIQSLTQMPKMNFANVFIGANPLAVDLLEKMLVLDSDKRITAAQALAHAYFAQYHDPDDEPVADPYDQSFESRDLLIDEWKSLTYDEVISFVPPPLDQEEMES
T2 sequence (Q9NSY1 whole entry): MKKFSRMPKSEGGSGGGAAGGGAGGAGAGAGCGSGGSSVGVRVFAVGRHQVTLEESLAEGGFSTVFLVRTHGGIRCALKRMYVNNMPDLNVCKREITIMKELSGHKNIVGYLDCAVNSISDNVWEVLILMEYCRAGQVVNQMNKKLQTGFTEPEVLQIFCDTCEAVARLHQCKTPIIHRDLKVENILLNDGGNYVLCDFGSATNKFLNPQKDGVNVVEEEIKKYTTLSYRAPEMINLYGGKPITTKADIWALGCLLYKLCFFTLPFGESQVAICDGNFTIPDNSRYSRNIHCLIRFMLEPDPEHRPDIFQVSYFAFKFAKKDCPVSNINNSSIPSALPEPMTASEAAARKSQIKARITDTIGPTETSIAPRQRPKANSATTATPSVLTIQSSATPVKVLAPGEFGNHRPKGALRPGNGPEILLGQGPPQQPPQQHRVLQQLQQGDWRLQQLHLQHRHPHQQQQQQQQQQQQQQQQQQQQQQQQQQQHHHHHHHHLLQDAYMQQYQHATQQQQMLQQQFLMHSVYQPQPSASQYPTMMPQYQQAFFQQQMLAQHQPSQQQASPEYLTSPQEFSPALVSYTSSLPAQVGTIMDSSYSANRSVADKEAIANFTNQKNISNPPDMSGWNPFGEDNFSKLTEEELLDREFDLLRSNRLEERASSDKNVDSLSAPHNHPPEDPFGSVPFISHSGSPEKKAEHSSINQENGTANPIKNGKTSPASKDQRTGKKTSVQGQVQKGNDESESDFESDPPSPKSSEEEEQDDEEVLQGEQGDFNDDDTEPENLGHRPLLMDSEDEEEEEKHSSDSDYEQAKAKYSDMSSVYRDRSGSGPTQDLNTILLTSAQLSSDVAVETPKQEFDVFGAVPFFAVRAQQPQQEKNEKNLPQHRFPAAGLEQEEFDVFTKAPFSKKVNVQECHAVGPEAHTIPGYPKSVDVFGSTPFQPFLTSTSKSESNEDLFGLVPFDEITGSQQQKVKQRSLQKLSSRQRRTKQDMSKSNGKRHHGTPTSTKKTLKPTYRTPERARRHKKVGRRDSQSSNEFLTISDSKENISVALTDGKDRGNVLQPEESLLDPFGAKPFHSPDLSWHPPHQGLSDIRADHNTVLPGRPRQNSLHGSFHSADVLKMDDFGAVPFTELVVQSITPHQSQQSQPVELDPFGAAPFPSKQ
T4 sequence (P45983 whole entry): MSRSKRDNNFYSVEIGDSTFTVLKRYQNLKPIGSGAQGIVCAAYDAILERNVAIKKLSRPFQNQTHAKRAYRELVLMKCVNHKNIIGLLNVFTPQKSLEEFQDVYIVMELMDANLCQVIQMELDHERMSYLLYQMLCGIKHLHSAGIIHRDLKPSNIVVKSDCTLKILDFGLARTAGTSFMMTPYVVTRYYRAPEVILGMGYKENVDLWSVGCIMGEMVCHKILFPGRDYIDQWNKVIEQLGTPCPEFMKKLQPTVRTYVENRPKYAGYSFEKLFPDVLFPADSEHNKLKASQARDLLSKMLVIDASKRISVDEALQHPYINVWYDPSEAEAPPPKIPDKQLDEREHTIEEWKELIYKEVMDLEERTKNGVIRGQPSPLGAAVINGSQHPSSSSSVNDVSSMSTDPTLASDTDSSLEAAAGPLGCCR
T3 sequence (P34947 whole entry): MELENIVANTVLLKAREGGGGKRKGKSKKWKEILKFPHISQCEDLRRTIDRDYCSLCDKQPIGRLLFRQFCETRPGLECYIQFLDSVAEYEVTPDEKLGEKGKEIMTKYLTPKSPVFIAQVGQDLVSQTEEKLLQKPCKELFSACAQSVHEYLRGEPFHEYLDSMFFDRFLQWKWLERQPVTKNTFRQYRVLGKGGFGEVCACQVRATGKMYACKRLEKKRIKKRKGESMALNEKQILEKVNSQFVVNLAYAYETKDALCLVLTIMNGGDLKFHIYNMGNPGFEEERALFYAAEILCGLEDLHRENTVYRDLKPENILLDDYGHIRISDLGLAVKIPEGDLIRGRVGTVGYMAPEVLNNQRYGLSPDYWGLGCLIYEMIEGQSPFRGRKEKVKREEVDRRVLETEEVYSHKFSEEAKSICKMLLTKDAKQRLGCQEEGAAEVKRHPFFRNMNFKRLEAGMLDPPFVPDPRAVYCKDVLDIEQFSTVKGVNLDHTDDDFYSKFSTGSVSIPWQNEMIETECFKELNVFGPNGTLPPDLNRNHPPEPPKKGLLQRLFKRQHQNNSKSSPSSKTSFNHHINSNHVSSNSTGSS
Chain of FGFR1 (P11362 whole entry): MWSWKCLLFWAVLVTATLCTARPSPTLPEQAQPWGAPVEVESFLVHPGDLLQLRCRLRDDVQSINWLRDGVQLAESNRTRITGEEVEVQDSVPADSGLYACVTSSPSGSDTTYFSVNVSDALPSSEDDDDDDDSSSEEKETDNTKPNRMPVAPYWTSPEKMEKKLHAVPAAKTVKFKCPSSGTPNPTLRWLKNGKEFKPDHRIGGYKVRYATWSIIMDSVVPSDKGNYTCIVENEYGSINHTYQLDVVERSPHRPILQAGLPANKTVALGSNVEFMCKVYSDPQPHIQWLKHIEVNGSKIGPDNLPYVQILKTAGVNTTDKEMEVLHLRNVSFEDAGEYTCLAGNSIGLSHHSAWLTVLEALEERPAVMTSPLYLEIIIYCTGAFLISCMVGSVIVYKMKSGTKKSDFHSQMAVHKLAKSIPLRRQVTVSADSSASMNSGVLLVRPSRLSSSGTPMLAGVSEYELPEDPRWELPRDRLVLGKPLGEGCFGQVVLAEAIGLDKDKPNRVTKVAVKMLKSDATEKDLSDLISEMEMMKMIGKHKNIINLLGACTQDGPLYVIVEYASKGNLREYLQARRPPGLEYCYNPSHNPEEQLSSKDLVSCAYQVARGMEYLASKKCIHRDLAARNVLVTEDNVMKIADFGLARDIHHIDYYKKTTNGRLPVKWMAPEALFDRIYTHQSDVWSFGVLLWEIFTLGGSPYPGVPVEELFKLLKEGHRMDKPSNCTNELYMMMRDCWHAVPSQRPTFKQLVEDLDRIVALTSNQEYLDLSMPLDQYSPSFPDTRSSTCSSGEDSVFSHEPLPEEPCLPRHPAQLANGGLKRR
Method for BIKE: (§1) S23 Thermal stability kinase selectivity. The assay was performed as previously described. 9,10 Briefly, recombinant protein kinase domains at a concentration of 2 μM were mixed with 10 μM compound in a buffer containing 20 mM HEPES, pH 7.5, and 500 mM NaCl. SYPRO Orange (5000×, Invitrogen) was added as a fluorescence probe (1 µl per mL). Subsequently, temperature-dependent protein unfolding profiles were measured using the QuantStudio™ 5 realtime PCR machine (Thermo Fisher). […] The temperature was raised with a step rate of 3°C per minute. Data points were analysed with the internal software (Thermal Shift SoftwareTM Version 1.4, Thermo Fisher) using the Boltzmann equation to determine the inflection point of the transition curve.
Method for BMPR2: as §1
Method for FGFR1: as §1
Method for GPRK5: as §1
Method for JNK1: as §1
Method for MST1: as §1
Method for NEK2: as §1
Method for p38a: as §1

`COc1ccc(OC(C)C)cc1Nc1cncc(-c2ccc(C(=O)O)cc2)n1` [7c]: the ΔTm at 10 µM was -1 °C on NEK2 (read-out: 7c); 10 °C at BIKE (read-out: 7c); 0 °C on FGFR1 (read-out: 7c); 4 °C on GPRK5 (read-out: 7c); 1 °C at JNK1 (read-out: 7c); 0 °C at BMPR2 (read-out: 7c). Moreover, the ΔTm at 10 µM at p38a (read-out: 7c) is -1 °C; on MST1 (read-out: 7c) it was 1 °C.
On to `CC(C)Oc1ccc2ccn(-c3cncc(-c4ccc(C(=O)O)cc4)n3)c2c1` [6c], for which the ΔTm at 10 µM on NEK2 (read-out: 6c) was -4 °C; on BIKE (read-out: 6c), 11 °C; on FGFR1 (read-out: 6c), 0 °C; on GPRK5 (read-out: 6c), 4 °C; at JNK1 (read-out: 6c), 3 °C; on BMPR2 (read-out: 6c) it was 7 °C. The figures for the ΔTm at 10 µM on p38a (read-out: 6c) and at MST1 (read-out: 6c) were -3 °C and 1 °C, respectively.
Regarding `CC(C)Nc1ccc2cnn(-c3cncc(-c4ccc(C(=O)O)cc4)n3)c2c1` [compound 2, 2], the ΔTm at 10 µM at NEK2 (read-out: 2) was -2 °C; at BIKE (read-out: 2), 13 °C; at FGFR1 (read-out: 2) it was 1 °C; at GPRK5 (read-out: 2), 6 °C; on JNK1 (read-out: 2), 6 °C; on BMPR2 (read-out: 2) it was 6 °C. The ΔTm at 10 µM was -1 °C at p38a (read-out: 2) and 3 °C at MST1 (read-out: 2).
